The source of these data is PubChem BioAssay AID1259411 (Chemical Carcinogenesis Research Information System (CCRIS), 2018).

In the data set the test system is rodent carcinogenicity bioassays, tumor incidence. Description: CCRIS carcinogenicity studies. The method, boiled down:
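Archive of carcinogenicity, mutagenicity, tumor promotion and tumor inhibition results drawn from journals, NCI reports and other sources, expert-reviewed; covers 1985-2011 and is no longer updated.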

The source made the active and inactive calls. How the calls were made is not given here.

On to `O=C1Nc2ccc(Cl)cc2C(c2ccccc2)=NC1O` (centres undefined), for which the carcinogen call is “active; positive” (Species: MOUSE, Strain/Sex: B6C3F1/FEMALE, Route: ORAL, Dose: 0, 125, 2500, 5000 PPM IN FEED FOR 104-105 WK (STUDY DURATION: 105 WK), Dose: 0, 125, 2500, 5000 PPM IN FEED FOR 104-105 WK (STUDY DURATION: 105 WK), Tumor Site: Type of Lesion: LIVER: HEPATOBLASTOMA, HEPATOCELLULAR ADENOMA, HEPATOCELLULAR CARCINOMA, THYROID: FOLLICULAR CELL ADENOMA); “active; positive” (Species: MOUSE, Strain/Sex: B6C3F1/MALE, Route: ORAL, Dose: 0, 125, 2500, 5000 PPM IN FEED FOR 104-105 WK (STUDY DURATION: 105 WK), Dose: 0, 125, 2500, 5000 PPM IN FEED FOR 104-105 WK (STUDY DURATION: 105 WK), Tumor Site: Type of Lesion: LIVER: HEPATOBLASTOMA, HEPATOCELLULAR ADENOMA, HEPATOCELLULAR CARCINOMA); “active; positive” (Species: MOUSE, Strain/Sex: SWISS-WEBSTER/FEMALE, Route: ORAL, Dose: 0, 2500, 5000 PPM IN FEED FOR 57 WK (STUDY DURATION: 57 WK), Dose: 0, 2500, 5000 PPM IN FEED FOR 57 WK (STUDY DURATION: 57 WK), Tumor Site: Type of Lesion: LIVER: HEPATOCELLULAR ADENOMA, HEPATOCELLULAR CARCINOMA); “active; positive” (Species: MOUSE, Strain/Sex: SWISS-WEBSTER/MALE, Route: ORAL, Dose: 0, 2500, 5000 PPM IN FEED FOR 57 WK (STUDY DURATION: 57 WK), Dose: 0, 2500, 5000 PPM IN FEED FOR 57 WK (STUDY DURATION: 57 WK), Tumor Site: Type of Lesion: LIVER: HEPATOCELLULAR ADENOMA, HEPATOCELLULAR CARCINOMA); “active; positive” (Species: MOUSE, Strain/Sex: SWISS/MALE,FEMALE, Route: ORAL, Dose: 0.05, 0.15% IN DIET FOR 9 MO, Tumor Site: Type of Lesion: LIVER: HEPATOCELLULAR ADENOMA); “inactive; negative” (Species: RAT, Strain/Sex: F344/FEMALE, Route: ORAL, Dose: 0, 625, 2500, 5000 PPM FOR 105 WK (STUDY DURATION: 105 WK), Dose: 0, 625, 2500, 5000 PPM FOR 105 WK (STUDY DURATION: 105 WK)). In addition, the carcinogen call is, setting by setting: (Species: RAT, Strain/Sex: F344/FEMALE, Route: ORAL, Dose: 0, 625, 2500, 5000 PPM IN DIET FOR 105 WK (STUDY DURATION: 105 WK), Dose: 0, 625, 2500, 5000 PPM IN DIET FOR 105 WK (STUDY DURATION: 105 WK)) “inactive; negative”; (Species: RAT, Strain/Sex: F344/FEMALE, Route: ORAL, Dose: 0, 10,000 PPM FOR 26 WK (STUDY DURATION: 105 WK)) “inactive; negative”; (Species: RAT, Strain/Sex: F344/FEMALE, Route: ORAL, Dose: 0, 10000 PPM IN DIET FOR 26 WK (STUDY DURATION: 105 WK)) “inactive; negative”; (Species: RAT, Strain/Sex: F344/MALE, Route: ORAL, Dose: 0, 625, 2500, 5000 PPM IN DIET FOR 105 WK (STUDY DURATION: 105 WK), Dose: 0, 625, 2500, 5000 PPM IN DIET FOR 105 WK (STUDY DURATION: 105 WK), Tumor Site: Type of Lesion: KIDNEY: RENAL TUBULE ADENOMA) “equivocal”; (Species: RAT, Strain/Sex: F344/MALE, Route: ORAL, Dose: 0, 10000, PPM IN DIET FOR 26 WK (STUDY DURATION: 105 WK), Dose: 0, 10000, PPM IN DIET FOR 26 WK (STUDY DURATION: 105 WK), Tumor Site: Type of Lesion: KIDNEY: RENAL TUBULE ADENOMA) “equivocal”; (Species: RAT, Strain/Sex: F344/MALE, Route: ORAL, Dose: 0, 10,000 PPM FOR 26 WK (STUDY DURATION: 105 WK), Tumor Site: Type of Lesion: KIDNEY: RENAL TUBULE ADENOMA) “active; positive”.
Turning to `Nc1cc(Cl)nc(C(=O)O)c1Cl`, the carcinogen call by setting is: (Species: Mouse, Strain/Sex: CD-1/Female, Route: Oral, Dose: 0, 5, 250, 1000 mg/kg/d in feed for 18 mo, Dose: 0, 5, 250, 1000 mg/kg/d in feed for 18 mo) “inactive; negative; purity was 94.5%”; (Species: Mouse, Strain/Sex: CD-1/Male, Route: Oral, Dose: 0, 5, 250, 1000 mg/kg/d in feed for 18 mo, Dose: 0, 5, 250, 1000 mg/kg/d in feed for 18 mo) “inactive; negative; purity was 94.5%”; (Species: Rat, Strain/Sex: F344/Female, Route: Oral, Dose: 0, 5, 50, 500, 1000 mg/kg/d in feed for 24 mo, Dose: 0, 5, 50, 500, 1000 mg/kg/d in feed for 24 mo) “inactive; negative; purity was 94.5%”; (Species: Rat, Strain/Sex: F344/Male, Route: Oral, Dose: 0, 5, 50, 500, 1000 mg/kg/d in feed for 24 mo, Dose: 0, 5, 50, 500, 1000 mg/kg/d in feed for 24 mo) “inactive; negative; purity was 94.5%”.
With `CC(CCC(=O)N(CC(=O)O)N=O)C1CCC2C3C(O)CC4C[C@H](O)CCC4(C)C3C[C@H](O)C12C` (some centres undefined), where the note is “Species: RAT, Strain/Sex: F344/MALE, Route: GAVAGE, Dose: 0, 10 MG IN 50 µL DMSO 5 D/WK FOR 6 WK (STUDY DURATION: 108 WK), Tumor Site: Type of Lesion: LIVER: CARCINOMA”, the carcinogen call is “active; positive”.
`ClCC(Br)CBr` (centres undefined): the carcinogen call reads like this: (Species: MOUSE, Strain/Sex: B6C3F1/FEMALE, Route: GAVAGE, Dose: 0, 110, 209 MG/KG, TWA, Dose: 0, 110, 209 MG/KG, TWA, Tumor Site: Type of Lesion: STOMACH: SQUAMOUS CELL CARCINOMA) “active; positive”; (Species: MOUSE, Strain/Sex: B6C3F1/FEMALE, Route: INHALATION, Dose: 0, 0.6, 3.0 PPM 6 HR/D, 5 D/WK FOR 76-103 WK, Dose: 0, 0.6, 3.0 PPM 6 HR/D, 5 D/WK FOR 76-103 WK, Tumor Site: Type of Lesion: NASAL CAVITY: CARCINOMA (NOS), SQUAMOUS CELL CARCINOMA, SQUAMOUS CELL CARCINOMA OR SQUAMOUS CELL PAPILLOMA, ADENOCARCINO) “active; positive”; (Species: MOUSE, Strain/Sex: B6C3F1/MALE, Route: GAVAGE, Dose: 0, 114, 219 MG/KG, TWA, Dose: 0, 114, 219 MG/KG, TWA, Tumor Site: Type of Lesion: STOMACH: SQUAMOUS CELL CARCINOMA) “active; positive”; (Species: MOUSE, Strain/Sex: B6C3F1/MALE, Route: INHALATION, Dose: 0, 0.6, 3.0 PPM 6 HR/D, 5 D/WK FOR 76 WK, Dose: 0, 0.6, 3.0 PPM 6 HR/D, 5 D/WK FOR 76 WK, Tumor Site: Type of Lesion: NASAL CAVITY: CARCINOMA (NOS), SQUAMOUS CELL CARCINOMA, ADENOMATOUS POLYP (NOS), LUNG: ALVEOLAR/BRONCHIOLAR ADENOMA, ALV) “active; positive”; (Species: RAT, Strain/Sex: F344/FEMALE, Route: INHALATION, Dose: 0, 0.6, 3.0 PPM 6 HR/D, 5 D/WK FOR 84-103 WK, Dose: 0, 0.6, 3.0 PPM 6 HR/D, 5 D/WK FOR 84-103 WK, Tumor Site: Type of Lesion: NASAL CAVITY: ADENOMATOUS POLYP (NOS), ADENOMA (NOS), SQUAMOUS CELL PAPILLOMA, CARCINOMA (NOS), ADENOCARCINOMA (NOS), NA) “active; positive”; (Species: RAT, Strain/Sex: F344/MALE, Route: INHALATION, Dose: 0, 0.6, 3.0 PPM 6 HR/D, 5 D/WK FOR 84-103 WK, Dose: 0, 0.6, 3.0 PPM 6 HR/D, 5 D/WK FOR 84-103 WK, Tumor Site: Type of Lesion: NASAL CAVITY: ADENOMATOUS POLYP (NOS), ADENOMA (NOS), SQUAMOUS CELL PAPILLOMA, SQUAMOUS CELL CARCINOMA, CARCINOMA (NOS)) “active; positive”. Further, the carcinogen call by setting is: (Species: RAT, Strain/Sex: OSBORNE-MENDEL/FEMALE, Route: GAVAGE, Dose: 0, 15, 29 MG/KG, TWA, Dose: 0, 15, 29 MG/KG, TWA, Tumor Site: Type of Lesion: STOMACH: SQUAMOUS CELL CARCINOMA, SQUAMOUS CELL PAPILLOMA, MAMMARY GLAND: ADENOCARCINOMA) “active; positive”; (Species: RAT, Strain/Sex: OSBORNE-MENDEL/MALE, Route: GAVAGE, Dose: 0, 15, 29 MG/KG, TWA, Dose: 0, 15, 29 MG/KG, TWA, Tumor Site: Type of Lesion: STOMACH: SQUAMOUS CELL CARCINOMA, MULTIPLE SITES: HEMANGIOSARCOMA OR HEMANGIOMA) “active; positive”.
As for `COC(=O)C1=CCCN(C)C1`, the carcinogen call by setting is: (Species: MOUSE, Strain/Sex: SWISS/FEMALE, Route: GAVAGE, Dose: 0, 1 MG/D 5 D/WK FOR LIFE (STUDY DURATION: LIFE)) “inactive; negative”; (Species: MOUSE, Strain/Sex: SWISS/MALE, Route: GAVAGE, Dose: 0, 1 MG/D 5 D/WK FOR LIFE (STUDY DURATION: LIFE), Tumor Site: Type of Lesion: LIVER: HEMANGIOMA, LUNG: ADENOCARCINOMA, STOMACH: SQUAMOUS CELL CARCINOMA, Tumor Site: Type of Lesion: LIVER: HEMANGIOMA, LUNG: ADENOCARCINOMA, STOMACH: SQUAMOUS CELL CARCINOMA) “active; positive”.
With `C=CN(C)N=O`, the carcinogen call was “active; positive” (Species: RAT, Route: INHALATION, Tumor Site: Type of Lesion: NASAL CAVITY) and “active; positive” (Species: RAT, Route: ORAL, Tumor Site: Type of Lesion: ESOPHAGUS).
